Measurements as given in patent publication US11000033B2, “Ketone or oxime compound, and herbicide” (NISSAN CHEMICAL CORPORATION, priority 2014, dated 2021).

Columns and labels:
Assay type in all cases: in vivo
[1] = tested on: Echinochloa oryzacola Vasing.; test: Test Example 2: herbicidal activity, application during weed generation in submerged conditions (symbol A); conditions: Table 23; application herbicide amount 320 g/ha; grade 0-5 by criteria of Test Example 1
Summary of the method: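 Treatment timing was the one- to two-leaf stage, with diluted emulsifiable compound dropped onto the paddy water (depth 4 cm) over alluvial soil. All three species grew from a mixed sowing in a 25° C. to 30° C. greenhouse. Injury was judged by eye 3 weeks on.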

Leptochloa chinensis = test: Test Example 3: herbicidal effect by foliage application, Wagner pot (symbol D); conditions: application herbicide amount 320 g/ha
Summary of the method: (§1)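 The compound, formulated as an emulsion and diluted with water to a predetermined rate, is applied uniformly to leaves of two-week-old seedlings growing in submerged alluvial soil at 25–30 °C. Rice is included. Each plant is assessed 3 weeks later using defined criteria.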

Cyperus difformis = test: Test Example 3: herbicidal effect by foliage application, Wagner pot (symbol E); conditions: application herbicide amount 320 g/ha
Summary of the method: as §1

[2] = tested on: directly sowed rice plant; test: Test Example 3: effect on crop by foliage application, Wagner pot (symbol b); conditions: application herbicide amount 320 g/ha
Summary of the method: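 Wagner pot (1/10000 are), alluvial soil, submerged 0.1–0.5 cm; sown E. crus-galli var. crus-galli, L. chinensis, C. difformis, rice; greenhouse 25–30 °C.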

Setaria viridis = test: Test Example 4: herbicidal effect by soil treatment (symbol G); conditions: application herbicide amount 320 g/ha
Summary of the method: (§2)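 Seeds were sown in sterilized diluvial soil, covered with about 1.5 cm of soil, and the soil surface was sprayed with a water-diluted emulsion of the compound at a predetermined rate. Plants grew in a greenhouse at 25° C. to 30° C.; effects were scored visually 3 weeks after application.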

Avena fatua [3] = test: Test Example 4: herbicidal effect by soil treatment (symbol I); conditions: application herbicide amount 320 g/ha
Summary of the method: as §2

Alopecurus myosuroides = test: Test Example 4: herbicidal effect by soil treatment (symbol J); conditions: application herbicide amount 320 g/ha
Summary of the method: as §2

Lolium multiflorum Lam. = test: Test Example 4: herbicidal effect by soil treatment (symbol K); conditions: application herbicide amount 320 g/ha
Summary of the method: as §2

Abutilon theophrasti = test: Test Example 4: herbicidal effect by soil treatment (symbol M); conditions: application herbicide amount 320 g/ha
Summary of the method: as §2

Amaranthus retroflexus = test: Test Example 4: herbicidal effect by soil treatment (symbol N); conditions: application herbicide amount 320 g/ha
Summary of the method: as §2

Galium spurium = test: Test Example 4: herbicidal effect by soil treatment (symbol Q); conditions: application herbicide amount 320 g/ha
Summary of the method: as §2

rice = test: Test Example 4: effect on crop by soil treatment (symbol b); conditions: application herbicide amount 320 g/ha
Summary of the method: (§3)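 Sterilized diluvial soil, spot sowing, ~1.5 cm soil cover; greenhouse 25–30° C.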

wheat = test: Test Example 4: effect on crop by soil treatment (symbol e); conditions: application herbicide amount 320 g/ha
Summary of the method: as §3

Avena fatua [4] = test: Test Example 5: herbicidal effect by foliage application, plastic box (symbol I); conditions: 320 g/ha, 3 weeks after application
Summary of the method: (§4)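 Post-emergence spray; diluvial soil (sterilized), ~1.5 cm seed cover; greenhouse 25–30° C; 14-day-old plants; water-diluted emulsion at predetermined dose; visual score at 3 wk post-treatment.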

corn = test: Test Example 5: effect on crop by foliage application, plastic box (symbol c); conditions: 320 g/ha, 3 weeks after application
Summary of the method: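 Plants were raised from seed in a greenhouse (25° C. to 30° C.) after sowing in a plastic box of sterilized diluvial soil.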

Chenopodium album [5] = test: Test Example 4: herbicidal effect by soil treatment (symbol O); conditions: application herbicide amount 320 g/ha
Summary of the method: as §2

Chenopodium album [6] = test: Test Example 5: herbicidal effect by foliage application, plastic box (symbol O); conditions: 320 g/ha, 3 weeks after application
Summary of the method: as §4

Stellaria media = test: Test Example 5: herbicidal effect by foliage application, plastic box (symbol P); conditions: 320 g/ha, 3 weeks after application
Summary of the method: as §4

SMILES	Herbicidal effect grade, A: Echinochloa oryzacola Vasing. [1]	herbicidal effect on D (Leptochloa chinensis), grade 0-5 (Leptochloa chinensis)	herbicidal effect on E, grade 0-5 (Cyperus difformis)	effect on crop b (directly sowed rice plant), grade 0-5 [2]	G (Setaria viridis) herbicidal effect grade (Setaria viridis)	I (Avena fatua) herbicidal effect grade (Avena fatua [3])	J (Alopecurus myosuroides) herbicidal effect grade (Alopecurus myosuroides)	K (Lolium multiflorum Lam.) herbicidal effect grade (Lolium multiflorum Lam.)	M (Abutilon theophrasti) herbicidal effect grade (Abutilon theophrasti)	N (Amaranthus retroflexus) herbicidal effect grade (Amaranthus retroflexus)	Q (Galium spurium) herbicidal effect grade (Galium spurium)	b (directly sowed rice plant) effect on crop grade (rice)	e (wheat) effect on crop grade (wheat)	I: Avena fatua, herbicidal effect grade (Avena fatua [4])	c: corn, effect on crop grade (corn)	I: Avena fatua, herbicidal effect (criteria of Test Example 1) (Avena fatua [4])	c: corn, effect on crop (criteria of Test Example 1) (corn)	Herbicidal effect grade, G: Setaria viridis (Setaria viridis)	Herbicidal effect grade, I: Avena fatua (Avena fatua [3])	Herbicidal effect grade, J: Alopecurus myosuroides (Alopecurus myosuroides)	further results
CC(CC1CC(O)=C(c2c(C)cc(C)cc2C)C1=O)=NOCc1ccccc1 (stereo not shown) [1-020]	5 (Herbicidal ratio of 90% or more (almost completely withered))	5 (Herbicidal ratio of 90% or more (almost completely withered))	2 (Herbicidal ratio of 20% or higher and lower than 40%)	5 (Herbicidal ratio of 90% or more (almost completely withered))	5 (Herbicidal ratio of 90% or more (almost completely withered))	4 (Herbicidal ratio of 70% or higher and lower than 90%)	5 (Herbicidal ratio of 90% or more (almost completely withered))	5 (Herbicidal ratio of 90% or more (almost completely withered))	3 (Herbicidal ratio of 40% or higher and lower than 70%)	0 (Herbicidal ratio of 5% or lower (almost no effect))	0 (Herbicidal ratio of 5% or lower (almost no effect))	5 (Herbicidal ratio of 90% or more (almost completely withered))	2 (Herbicidal ratio of 20% or higher and lower than 40%)	4 (Herbicidal ratio of 70% or higher and lower than 90%)	1 (Herbicidal ratio of 5% or higher and lower than 20%)	–	–	–	–	–	–
CON=C(C)C(C(C)=NOC)C1CC(O)=C(c2c(C)cc(C)cc2C)C1=O (stereo not shown) [1-021]	0 (Herbicidal ratio of 5% or lower (almost no effect))	0 (Herbicidal ratio of 5% or lower (almost no effect))	0 (Herbicidal ratio of 5% or lower (almost no effect))	0 (Herbicidal ratio of 5% or lower (almost no effect))	0 (Herbicidal ratio of 5% or lower (almost no effect))	0 (Herbicidal ratio of 5% or lower (almost no effect))	0 (Herbicidal ratio of 5% or lower (almost no effect))	2 (Herbicidal ratio of 20% or higher and lower than 40%)	0 (Herbicidal ratio of 5% or lower (almost no effect))	0 (Herbicidal ratio of 5% or lower (almost no effect))	0 (Herbicidal ratio of 5% or lower (almost no effect))	2 (Herbicidal ratio of 20% or higher and lower than 40%)	0 (Herbicidal ratio of 5% or lower (almost no effect))	0 (Herbicidal ratio of 5% or lower (almost no effect))	0 (Herbicidal ratio of 5% or lower (almost no effect))	–	–	–	–	–	–
CON=C(C)CC1CC(O)=C(c2c(C)cc(-c3ccc(F)cc3)cc2C)C1=O (mixture of isomers) [6-058]	5 (Herbicidal ratio of 90% or more (almost completely withered))	5 (Herbicidal ratio of 90% or more (almost completely withered))	5 (Herbicidal ratio of 90% or more (almost completely withered))	5 (Herbicidal ratio of 90% or more (almost completely withered))	–	–	–	–	–	–	–	–	–	–	–	5 (Herbicidal ratio of 90% or more (almost completely withered))	5 (Herbicidal ratio of 90% or more (almost completely withered))	–	–	–	G: Setaria viridis, herbicidal effect grade (Setaria viridis): 5 (Herbicidal ratio of 90% or more (almost completely withered)); I: Avena fatua, herbicidal effect grade (Avena fatua [3]): 5 (Herbicidal ratio of 90% or more (almost completely withered)); J: Alopecurus myosuroides, herbicidal effect grade (Alopecurus myosuroides): 5 (Herbicidal ratio of 90% or more (almost completely withered)); K: Lolium multiflorum Lam., herbicidal effect grade (Lolium multiflorum Lam.): 5 (Herbicidal ratio of 90% or more (almost completely withered)); M: Abutilon theophrasti, herbicidal effect grade (Abutilon theophrasti): 5 (Herbicidal ratio of 90% or more (almost completely withered)); N: Amaranthus retroflexus, herbicidal effect grade (Amaranthus retroflexus): 5 (Herbicidal ratio of 90% or more (almost completely withered)); O: Chenopodium album, herbicidal effect grade (Chenopodium album [5]): 5 (Herbicidal ratio of 90% or more (almost completely withered)); b: directly sowed rice plant, effect on crop grade (rice): 5 (Herbicidal ratio of 90% or more (almost completely withered)); e: wheat, effect on crop grade (wheat): 5 (Herbicidal ratio of 90% or more (almost completely withered)); O: Chenopodium album, herbicidal effect (criteria of Test Example 1) (Chenopodium album [6]): 5 (Herbicidal ratio of 90% or more (almost completely withered)); P: Stellaria media, herbicidal effect (criteria of Test Example 1) (Stellaria media): 5 (Herbicidal ratio of 90% or more (almost completely withered))
CCc1cc(Br)cc(C)c1C1=C(O)CC(C(C(C)=O)C(=O)OC)C1=O (stereo not shown) [7-001]	0 (Herbicidal ratio of 5% or lower (almost no effect))	5 (Herbicidal ratio of 90% or more (almost completely withered))	0 (Herbicidal ratio of 5% or lower (almost no effect))	2 (Herbicidal ratio of 20% or higher and lower than 40%)	–	–	–	–	–	–	–	–	–	–	–	3 (Herbicidal ratio of 40% or higher and lower than 70%)	2 (Herbicidal ratio of 20% or higher and lower than 40%)	4 (Herbicidal ratio of 70% or higher and lower than 90%)	3 (Herbicidal ratio of 40% or higher and lower than 70%)	0 (Herbicidal ratio of 5% or lower (almost no effect))	Herbicidal effect grade, K: Lolium multiflorum Lam. (Lolium multiflorum Lam.): 5 (Herbicidal ratio of 90% or more (almost completely withered)); Herbicidal effect grade, M: Abutilon theophrasti (Abutilon theophrasti): 0 (Herbicidal ratio of 5% or lower (almost no effect)); Herbicidal effect grade, N: Amaranthus retroflexus (Amaranthus retroflexus): 0 (Herbicidal ratio of 5% or lower (almost no effect)); Herbicidal effect grade, Q: Galium spurium (Galium spurium): 0 (Herbicidal ratio of 5% or lower (almost no effect)); Effect on crop grade, b: directly sowed rice plant (rice): 4 (Herbicidal ratio of 70% or higher and lower than 90%); Effect on crop grade, e: wheat (wheat): 0 (Herbicidal ratio of 5% or lower (almost no effect))
CC(=O)C1CC(O)=C(c2c(C)cc(C)cc2C)C1=O (stereo not shown) [8-001]	0 (Herbicidal ratio of 5% or lower (almost no effect))	–	–	–	–	–	–	–	–	–	–	–	–	0 (Herbicidal ratio of 5% or lower (almost no effect))	0 (Herbicidal ratio of 5% or lower (almost no effect))	–	–	0 (Herbicidal ratio of 5% or lower (almost no effect))	0 (Herbicidal ratio of 5% or lower (almost no effect))	0 (Herbicidal ratio of 5% or lower (almost no effect))	D (Leptochloa chinensis) herbicidal effect grade (Leptochloa chinensis; Table 24): 0 (Herbicidal ratio of 5% or lower (almost no effect)); E herbicidal effect grade (Cyperus difformis; Table 24): 0 (Herbicidal ratio of 5% or lower (almost no effect)); b (directly sowed rice plant) effect on crop grade ([2]; Table 24): 0 (Herbicidal ratio of 5% or lower (almost no effect)); Herbicidal effect grade, K: Lolium multiflorum Lam. (Lolium multiflorum Lam.): 0 (Herbicidal ratio of 5% or lower (almost no effect)); Herbicidal effect grade, M: Abutilon theophrasti (Abutilon theophrasti): 0 (Herbicidal ratio of 5% or lower (almost no effect)); Herbicidal effect grade, N: Amaranthus retroflexus (Amaranthus retroflexus): 0 (Herbicidal ratio of 5% or lower (almost no effect)); Herbicidal effect grade, O: Chenopodium album (Chenopodium album [5]): 0 (Herbicidal ratio of 5% or lower (almost no effect)); Effect on crop grade, b: directly sowed rice plant (rice): 0 (Herbicidal ratio of 5% or lower (almost no effect)); Effect on crop grade, e: wheat (wheat): 0 (Herbicidal ratio of 5% or lower (almost no effect)); O: Chenopodium album, herbicidal effect grade (Chenopodium album [6]): 0 (Herbicidal ratio of 5% or lower (almost no effect)); P: Stellaria media, herbicidal effect grade (Stellaria media): 0 (Herbicidal ratio of 5% or lower (almost no effect))
